Assay results as given in US12016833B2 (ACEBiomed, Inc., priority 2020, dated 2024).
Read-outs that look alike come from different tables or passages of the source.

Columns and labels:
[1] = tested on: obesity-induced rats; test: Fat accumulated in liver tissue, oil red O staining; format: in vivo; conditions: HFD rats; FIG. 5
Excerpt: In addition, in order to examine a quantitative change of fat accumulated in the liver tissues of the rats, the fat was confirmed by staining using an oil red O method, and the results were shown in FIG. 5.

[2] = HFD rats; colchicine (10 μg/kg) alone or colchicine (10 μg/kg)/metformin (50 mg/kg), oral gavage 3 times a week, 6 weeks; FIG. 2
Experimental: (§1) The drugs were administered with a high fat diet for a total of 6 weeks, and administered by oral gavage 3 times a week.

[3] = tested on: AMPK; conditions: drug treatment for 7 hours; FIG. 7
[4] = tested on: AMPK; conditions: HFD rats; colchicine 100 μg/kg alone or with metformin 100 mg/kg; FIG. 6
Experimental: as §1

[5] = tested on: obesity-induced rats; conditions: HFD rats
Experimental: as §1

[6] = tested on: ACC; conditions: rat AML12 liver cell line; drug treatment for 7 hours; FIG. 7
[7] = tested on: obesity-induced rats; conditions: HFD rats; remark: listed apart in the source
Experimental: as §1

[8] = tested on: ACC; conditions: HFD rats; colchicine 100 μg/kg alone or with metformin 100 mg/kg; FIG. 6
Experimental: as §1

[9] = tested on: obesity-induced rats; test: Anatomical test of liver cross-sections by H&E staining; format: in vivo; conditions: HFD rats; colchicine 100 μg/kg alone or with metformin 100 mg/kg; FIG. 4
Excerpt: For the anatomical test of the cross-sections of the livers of the rats, H&E staining was applied, and the results were shown in FIG. 4.

[10] = tested on: obesity-induced rats; conditions: HFD rats; remark: listed apart in the source
Experimental: as §1

[11] = colchicine 10 μg/kg alone, Table 1
[12] = colchicine 50 μg/kg alone, Table 1
[13] = colchicine 100 μg/kg alone, Table 1
[14] = colchicine 100 μg/kg alone, Table 2
[15] = colchicine 200 μg/kg alone, Table 1
[16] = colchicine 10 μg/kg alone, Table 3
[17] = colchicine 50 μg/kg alone, Table 3
[18] = colchicine 100 μg/kg alone, Table 3
[19] = colchicine 100 μg/kg alone, Table 4
[20] = colchicine 200 μg/kg alone, Table 3

COc1cc2c(c(OC)c1OC)-c1ccc(OC)c(=O)cc1[C@@H](NC(C)=O)CC2 [Colchicine]
fat accumulation in the liver tissues (oil red O) [1]: reduced | change in weights of the whole rats [2]: no significant change | activation of AMPK [3]: increased | activation of AMPK in liver tissues [4]: partially recovered | Ballooning degeneration ([5]; FIG. 3): reduced | Portal inflammation ([5]; FIG. 3): reduced | macrovesicular steatosis ([5]; FIG. 3): no effect | microvesicular steatosis ([5]; FIG. 3): reduced | Ballooning degeneration [5, 11]: 2 | Fatty necrosis [5, 11]: 3 | Fibrosis [5, 11]: 3 | Portal inflammation [5, 11]: 2 | Total score [5, 11]: 10 | Ballooning degeneration [5, 12]: 2 | Fatty necrosis [5, 12]: 2 | Fibrosis [5, 12]: 2 | Portal inflammation [5, 12]: 2 | Total score [5, 12]: 8 | Ballooning degeneration [5, 13]: 1 | Fatty necrosis [5, 13]: 2 | Fibrosis [5, 13]: 1 | Portal inflammation [5, 13]: 1 | Total score [5, 13]: 5 | Ballooning degeneration [5, 14]: 1 | Fatty necrosis [5, 14]: 2 | Fibrosis [5, 14]: 1 | Portal inflammation [5, 14]: 2 | Total score [5, 14]: 6 | Ballooning degeneration [5, 15]: 2 | Fatty necrosis [5, 15]: 2 | Fibrosis [5, 15]: 1 | Portal inflammation [5, 15]: 2 | Total score [5, 15]: 7 | activation of ACC [6]: increased | Hydroxyproline ([7]; colchicine 10 μg/kg alone, Table 5): 345.28 ± 8.14 μg/g of liver | Hydroxyproline ([7]; colchicine 50 μg/kg alone, Table 5): 326.46 ± 14.55 μg/g of liver | Hydroxyproline ([7]; colchicine 100 μg/kg alone, Table 5): 308.13 ± 5.04 μg/g of liver | Hydroxyproline ([7]; colchicine 100 μg/kg alone, Table 6): 316.68 ± 13.36 μg/g of liver | activation of ACC in liver tissues [8]: partially recovered | steatosis in the liver tissues (H&E staining) [9]: reduced | ALT [10, 16]: 1742.57 ± 102.71 U/L | AST [10, 16]: 1766.90 ± 90.48 U/L | Total protein [10, 16]: 5.07 ± 0.30 g/dL | ALT [10, 17]: 1602.38 ± 61.31 U/L | AST [10, 17]: 1759.49 ± 61.71 U/L | Total protein [10, 17]: 5.21 ± 0.33 g/dL | ALT [10, 18]: 1466.48 ± 49.34 U/L | AST [10, 18]: 1614.70 ± 78.28 U/L | Total protein [10, 18]: 5.24 ± 0.13 g/dL | ALT [10, 19]: 1508.64 ± 102.38 U/L | AST [10, 19]: 1574.22 ± 75.98 U/L | Total protein [10, 19]: 5.13 ± 0.22 g/dL | ALT [10, 20]: 1735.40 ± 86.49 U/L | AST [10, 20]: 1833.70 ± 131.74 U/L | Total protein [10, 20]: 5.09 ± 0.32 g/dL
